Results on 14 substances are retold here after patent US11286299B2, “Peptides selective for Bcl-2 family proteins” (Massachusetts Institute of Technology, priority 2018, dated 2022).

The target in test [1] is T1, Bfl-1 (Homo sapiens, UniProt Q16548).
T1 sequence (Q16548 1-151): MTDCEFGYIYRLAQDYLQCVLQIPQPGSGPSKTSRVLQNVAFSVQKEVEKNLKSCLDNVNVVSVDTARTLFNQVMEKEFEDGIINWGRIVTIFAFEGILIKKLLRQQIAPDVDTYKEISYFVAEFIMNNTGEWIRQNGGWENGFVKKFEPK
Conditions: cited from earlier work.

For test [2], the target named is T2, Mcl-1 (Homo sapiens, UniProt Q07820). Conditions: cited from earlier work; for Ki: Table X3, previously reported selective peptides, read-out: reported affinity, Mcl-1.
In test [3] the target is T3, Bcl-xL (Homo sapiens, UniProt Q07817). Particulars: cited from earlier work; for Ki: Table X3, previously reported selective peptides, read-out: reported affinity, Bcl-xL.
In test [4] the target is T1, Bfl-1. The test is described as follows: Competition fluorescence polarization (anisotropy) binding assay. Also on record: Bfl-1 residues 1-151; made in house; host or cells: E. coli. As to the method:
(§1) Fluorescence polarization competition binding assay Competition fluorescence polarization experiments were performed as described by Jenson et al. […]. Experiments were performed in triplicate, using the same protein and peptide preparations, and data were fit as described by Foight et al. (20) to a complete competitive binding model (47).

Test [5] has as its target T2, Mcl-1. The test is described as above. On the set-up: Mcl-1 residues 172-327; made in house; host or cells: E. coli. As to the method: as §1
For test [6], the target named is T3, Bcl-xL. Described as above. Also on record: human Bcl-xL residues 1-209; made in house; host or cells: E. coli. The procedure:
as §1

Test [7] deals with B-ALL cell lines with engineered dependencies on human anti-apoptotic genes (Bfl-1, Mcl-1, Bcl-xL, Bcl-2). The test is described as follows: Cellular BH3 profiling assay (mitochondrial depolarization, JC-1, permeabilized cells). The test is classed as cell-based, murine. Particulars: for pro-apoptotic response in dependent cell lines: permeabilized cells, Bfl-1 vs Mcl-1 or Bcl-xL dependent cell lines. As to the method:
Cell Culture We used murine p185+ Arf^−/^− B-ALL suspension cell lines with engineered dependencies on the human anti-apoptotic genes (Bfl-1, Mcl-1, Bcl-xL), along with an apoptosis-resistant (Bax^−/−/Bak^−/−) control(51). Cells were grown in Roswell Park Memorial Institute (RPMI) 1640 medium supplemented with 10% (v/v) fetal bovine serum, 2 mM L-glutamine, 100 U/mL penicillin, […] streptomycin, 0.1 mM minimal essential medium nonessential amino acids, 25 mM HEPES and […] β-mercaptoethanol. Cell line authentication was performed by short tandem repeat (STR) analysis. Cell were monitored for mycoplasma contamination using the MycoAlert® Mycoplasma Detection Kit (Lonza, Rockland, Mass., USA).
Cellular BH3 profiling assay BH3 profiling was adapted from the protocol of Ryan and Letai (32). Peptides were diluted at the desired concentrations in MEB buffer (150 mM Mannitol, 10 mM HEPES-KOH pH 7.5, 50 mM KCl, 0.02 mM EGTA, 0.02 mM EDTA, 0.1% BSA and 5 mM succinate) containing […] oligomycin, […] digitonin, […] and 10 mM 2-mercaptoethanol in 384-well plates. […] Fluorescence emission was measured every 5 min for 3 hr at […] with 525 nm excitation on a Tecan Spark 10M. To produce percent depolarization, the area under the resulting curve was calculated and normalized to the assay controls. […]
Peptides were titrated by serial dilution in MEB buffer (150 mM Mannitol, 10 mM HEPES-KOH, pH 7.5, 50 mM KCl, 0.02 mM EGTA, 0.02 mM EDTA, 0.1% BSA and 5 mM Succinate) containing […] oligomycin, […] digitonin, […] and 10 mM 2-mercaptoethanol in 384-well plates. […] Fluorescence emission was measured every 5 min for 3 h at […] with 525 nm excitation on a Tecan Spark 10M. To produce percent depolarization, the area under the resulting curve was calculated and normalized to the assay controls. […]
As depicted in FIGS. 7-11, permeabilized cells were contacted with increasing doses of BH3 peptides, ad mitochondria outer membrane permeabilization (MOMP) was monitored using a voltage-sensitive dye (JC-1). […]

The target of test [8] is T1, Bfl-1. The test is described as follows: Yeast cell-surface display binding (FACS titration). On the set-up: Bfl-1 residues 1-151; made in house; host or cells: E. coli. Conditions: for binding to Bfl-1 in yeast display: SORTCERY designs; for reported affinity, Bfl-1: Table X3, this study, Bfl-1 specific peptides, cell-surface measurement, highest concentration tested 1000 nM. The text has this:
Protein constructs Anti-apoptotic protein constructs used in this work correspond to human Bcl-xL residues 1-209, Mcl-1 residues 172-327 and Bfl-1 residues 1-151, expressed in E. coli and purified as described by Dutta et al. (45).
Cells were filtered and washed 2× in chilled BSS before resuspending the labeled cells in BSS and using a BD FACSAria flow cytometer or a BD FACSCanto and FACSDiva software for cell sorting or analysis.
Crystals were flash frozen in liquid nitrogen.

Setting [9] is: fluoresceinated Bim BH3 competitor, as reported by Dutta et al. 2013.
The mark [10] stands for this setting: Table X2, 50 nM protein, 25 nM fluoresceinated Bim BH3, SD of three replicates, read-out: Ki, Bfl-1.
The mark [11] stands for this setting: Table X3, this study, same values as Table X2, read-out: reported affinity, Bfl-1.
[12] abbreviates: Table X2, 50 nM protein, 25 nM fluoresceinated Bim BH3, SD of three replicates, read-out: Ki, Mcl-1.
Setting [13] is: Table X3, this study, same values as Table X2, read-out: reported affinity, Mcl-1.
Setting [14] is: Table X2, 50 nM protein, 25 nM fluoresceinated Bim BH3, SD of three replicates, read-out: Ki, Bcl-xL.
[15] abbreviates: Table X3, this study, same values as Table X2, read-out: reported affinity, Bcl-xL.

For orientation: Kd means a measure of binding affinity in units of concentration.

Read-outs that look alike come from different tables or passages of the source. Some results are limits rather than exact numbers.

T3 sequence (Q07817 1-209): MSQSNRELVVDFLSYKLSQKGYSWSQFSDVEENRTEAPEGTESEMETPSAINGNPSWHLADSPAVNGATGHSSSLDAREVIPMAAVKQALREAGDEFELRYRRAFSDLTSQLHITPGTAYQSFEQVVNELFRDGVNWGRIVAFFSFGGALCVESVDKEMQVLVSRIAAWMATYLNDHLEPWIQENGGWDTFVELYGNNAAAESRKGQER
T2 sequence (Q07820 172-327): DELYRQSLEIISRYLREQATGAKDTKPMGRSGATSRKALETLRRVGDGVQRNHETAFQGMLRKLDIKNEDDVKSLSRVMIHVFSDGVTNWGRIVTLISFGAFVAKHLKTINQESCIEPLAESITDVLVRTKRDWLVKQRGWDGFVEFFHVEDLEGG

In the case of “(fl)IWIAQELRRIGDEFNAYY [Fluoresceinated Bim]”, the Kd in test [1] (setting [9]) was 0.004 ± 0.001 µM; in test [2] (fluoresceinated Bim BH3 competitor, as reported by Dutta et al. 2013, read-out: Kd, Mcl-1), 0.0008 ± 0.0004 µM; in test [3] (setting [9]), 0.006 ± 0.001 µM.
Regarding Ac-QPLIWFGAQLRRGADEFAAQRER-NH2 [srt.X7], the Ki is above 4 µM in test [4] (setting [10]); above 4 µM in test [4] (setting [11]); above 4 µM in test [5] (setting [12]); above 4 µM in test [5] (setting [13]); 0.0037 ± 0.0003 µM in test [6] (setting [14]).
In the case of “Ac-QRIIWIAAELRRAADELDKQIER-NH2 [srt.XF02]”, in test [5] (setting [12]), the Ki is above 4 µM.
Still for that read-out and setting: to “Ac-QRIIWIAAELRRAADQLDAQIER-NH2 [srt.XF03]” belongs above 4 µM.
Consider Ac-QRVVHIAAGLRRTGDQLEAYGER-NH2 [srt.F4], for which, in test [7], the “pro-apoptotic response in dependent cell lines” value is recorded as “selectively induced a pro-apoptotic response in Bfl-1 dependent cell lines, but not in Mcl-1 or Bcl-xL dependent cell lines”. The “binding to Bfl-1 in the FP competition assay” value in test [4] is listed as “undetectably”. For the same substance, in test [8], the “binding to Bfl-1 in yeast display” value is “bound Bfl-1 with high affinity in yeast display” and the “reported affinity, Bfl-1” value was determined as 14 ± 2 nM.
Ac-QTLIWYGASLRRYADEFAKQRER-NH2 [srt.X1]: the Ki in test [4] (setting [10]) is above 4 µM; in test [4] (setting [11]) it was above 4 µM; in test [5] (setting [12]), above 4 µM; in test [5] (setting [13]) it was above 4 µM; in test [6] (setting [14]) it was 0.00132 ± 0.00018 µM.
Take “Ac-QWLRDVVAELARIADEFHAQYER-NH2 [srt.MX05]”: the Ki in test [4] (setting [10]) was above 4 µM.
Turning to “Ac-QWLRWVIAELIRIADEFHAQYER-NH2 [srt.MX01]”, in test [4] (setting [10]), the Ki is above 4 µM.
For “Ac-RRVDEIAQILRRIGDNVTTYIER-NH2 [srt.MF06]”, in test [6] (setting [14]), the Ki was above 4 µM.
Turning to “Ac-RRVVQIAAGLRRAGDQLEKYGER-NH2 [srt.F10]”, in test [7], the “inhibition of Bfl-1 in the cellular assay relative to peptide FS1” value was “at least as potently as a previously described peptide” and the “pro-apoptotic response in dependent cell lines” value is reported as “selectively induced a pro-apoptotic response in Bfl-1 dependent cell lines, but not in Mcl-1 or Bcl-xL dependent cell lines”. The “binding to Bfl-1 in the FP competition assay” value in test [4] was “weakly”. In addition, in test [8], the “binding to Bfl-1 in yeast display” value is listed as “bound Bfl-1 with high affinity in yeast display” and the “reported affinity, Bfl-1” value stood at 3.2 ± 0.4 nM.
For Ac-RSELEVVQELVRIGDIVVAYFER-NH2 [srt.M1], the Ki in test [4] (setting [10]), in test [4] (setting [11]), in test [6] (setting [14]) and in test [6] (setting [15]) was above 4 µM each time.
Take Ac-RSQYEVIQELIRIGDIVLAYFER-NH2 [srt.M9]: the Ki is above 4 µM in test [4] (setting [10]); above 4 µM in test [4] (setting [11]); 0.0006 ± 0.0003 µM in test [5] (setting [12]); above 4 µM in test [6] (setting [14]); above 4 µM in test [6] (setting [15]).
Regarding QWVREIAAGLRLAADNVNAQLER [FS1], the Ki in test [1] (previously described peptide (ref 25), read-out: Ki for Bfl-1) is 0.015 µM; in test [2] it was above 5 µM; in test [3] it was 2.4 ± 0.4 µM.
For QWVREIAAGLRRAADDVNAQVER [FS2], the Ki was 0.021 ± 0.006 µM in test [1] (Table X3, previously reported selective peptides, read-out: reported affinity, Bfl-1); 3.2 ± 0.3 µM in test [2]; above 5 µM in test [3]. In test [2] (read-out: Kd for Mcl-1), the Kd is above 3 µM.
